Read-outs that look alike come from different tables or passages of the source.
System: Clostridium Perfringens (type A strain EHE-NE36) after Eimeria oocyst challenge
Settings: for Median Duodenal Lesion Score (0 absent to 4 severe) / Median Ilial Lesion Score (0 absent to 4 severe) / Median Jejunal Lesion Score (0 absent to 4 severe): 16 days
[1] = NE challenge, IVP 0.1 g/L in-water, groups 7, 8
[2] = NE challenge, IVP 0.20 g/kg in-feed, group 11
[3] = NE challenge, IVP 1.0 g/L in-water, groups 9, 10
[4] = NE challenge, IVP 2.0 g/kg in-feed, group 12
[5] = Necrotic Enteritis, IVP feed 0.2 g/kg, group 11, isolator 9, 11 birds
[6] = Necrotic Enteritis, IVP feed 2 g/kg, group 12, isolator 3, 15 birds
[7] = Necrotic Enteritis, IVP water 0.1 g/L, 'Mean' line of groups 7 and 8, 28 birds
[8] = Necrotic Enteritis, IVP water 0.1 g/L, group 7, isolator 6, 13 birds
[9] = Necrotic Enteritis, IVP water 0.1 g/L, group 8, isolator 11, 15 birds
[10] = Necrotic Enteritis, IVP water 1.0 g/L, 'Mean' line of groups 9 and 10, 25 birds
[11] = Necrotic Enteritis, IVP water 1.0 g/L, group 9, isolator 2, 9 birds
[12] = Necrotic Enteritis, IVP water 1.0 g/L, group 10, isolator 8, 16 birds
[13] = Nil Challenge, IVP water 1.0 g/L, 'Mean' line of groups 3 and 4, 25 birds
[14] = Nil Challenge, IVP water 1.0 g/L, group 3, isolator 10, 10 birds
[15] = Nil Challenge, IVP water 1.0 g/L, group 4, isolator 4, 15 birds
[16] = Nil challenge, IVP 1.0 g/L in-water, groups 3, 4

`COc1ccc2cc3[n+](cc2c1OC)CCc1cc2c(cc1-3)OCO2` [IRP001 chloride, berberine chloride] was tested, and the “Median Duodenal Lesion Score (0 absent to 4 severe)” value (“Median Duodenal Lesion Score” for short) [1] was 4, the “Median Ilial Lesion Score (0 absent to 4 severe)” value (shortened to “Median Ilial Lesion Score”) [1] was 4 and the “Median Jejunal Lesion Score (0 absent to 4 severe)” value (“Median Jejunal Lesion Score” for short) [1] was 4. For the same compound, the “Median Duodenal Lesion Score” value [2] was 4, the “Median Ilial Lesion Score” value [2] was 4 and the “Median Jejunal Lesion Score” value [2] was 4. The “Median Duodenal Lesion Score” value [3] was 1, the “Median Ilial Lesion Score” value [3] was 1 and the “Median Jejunal Lesion Score” value [3] was 1. The “Median Duodenal Lesion Score” value [4] was 1, the “Median Ilial Lesion Score” value [4] was 1 and the “Median Jejunal Lesion Score” value [4] was 1. The “Mortalities prior to autopsy” value [5] was 9, the Mortality % [5] was 82% and the “Mortalities prior to autopsy” value [6] was 2. The Mortality % [6] was 13%, the “Mortalities prior to autopsy” value [7] was 22 and the Mortality % [7] was 79%. For the same compound, the “Mortalities prior to autopsy” value [8] was 12, the Mortality % [8] was 92% and the “Mortalities prior to autopsy” value [9] was 10. The Mortality % [9] was 67%, the “Mortalities prior to autopsy” value [10] was 0 and the Mortality % [10] was 0%. The “Mortalities prior to autopsy” value [11] was 0, the Mortality % [11] was 0% and the “Mortalities prior to autopsy” value [12] was 0. The Mortality % [12] was 0%, the “Mortalities prior to autopsy” value [13] was 0 and the Mortality % [13] was 0%. The “Mortalities prior to autopsy” value [14] was 0, the Mortality % [14] was 0% and the “Mortalities prior to autopsy” value [15] was 0. The Mortality % [15] was 0%, the “Median Duodenal Lesion Score” value [16] was 0 and the “Median Ilial Lesion Score” value [16] was 0. For the same compound, the “Median Jejunal Lesion Score” value [16] was 0.

— patent US20240306670A1, “BERBERINE ALKALOIDS IN THE PREVENTION AND/OR TREATMENT OF INTESTINAL DISEASE” (priority 2017, published 2024)
